Experimental data: patent US11597936B2, “Recombinant Dgkk gene for fragile X syndrome gene therapy” (UNIVERSITE DE STRASBOURG, priority 2016, dated 2023)

Experiments:
CA1 pyramidal neurons = experiment: Dendritic spine morphology and dynamics in hippocampal organotypic slice cultures; format: cell-based, mouse
Description: A short hairpin RNA designed to target Dgkk (shRNA Dgkk, 5′-[…], SEQ ID No: 6) and the selected shRNA-scramble sequence (5′-[…], SEQ ID No: 7) that has no match in silico in the mouse genome, were cloned under the control of the mU6 promoter into a pAAV-MCS derived plasmid expressing enhanced green fluorescent protein (EGFP) under the control of a CMV promoter. Overexpression of Dgkk was achieved by cloning HA-tagged Δ5′reg-Dgkk under the control of the human Synapsin-1 gene promoter replacing EGFP in the control plasmid pENN.AAV.hSynapsin1.EGFP.RBG (provided by the Penn Vector Core at University of Pennsylvania). Recombinant adeno-associated virus serotype 9 (AAV9) co-expressing EGFP and shRNA (AAV9-EGFP-shRNA-Dgkk and control AAV9-EGFP-shRNA-scramble) as well as AAV9 expressing HA-Dgkk or EGFP (AAV9-hSynapsin1-HA-Dgkk and control AAV9-hSynapsin1-EGFP) were generated. AAV production was carried out using the AAV Helper-Free system (Agilent Technologies) with some modifications. AAV9 vectors were generated by triple transfection of 293T/17 cell line using either pAAV-EGFP-shRNA-Dgkk or pAAV-EGFP-shRNA-scramble, pAAV-hSynapsin1-HA-Δ5′reg-Dgkk or pENN.AAV.hSynapsin1.EGFP.RBG together with pAAV2/9 (Penn Vector Core) containing cap genes of AAV serotype 9 and pHelper. Two days after transfection, cells were collected, lysed by three freeze/thaw cycles in dry ice-ethanol and 37° C. baths, further treated with 100 U/ml Benzonase (Novagen) for 30 min at 37° C. and clarified by centrifugation. Viral vectors were purified by iodixanol (Optiprep™, Axis Shield) gradient ultracentrifugation followed by dialysis and concentration against PBS containing 0.5 mM MgCl2 using centrifugal filters (Amicon Ultra-15 100 K). Viral particles were quantified by real time PCR using a linearized standard plasmid pAAV-EGFP.
Hippocampal organotypic slice cultures (400 μm thick) were prepared from postnatal 5-6 day old C57BL/6 Fmr1+/y or its Fmr1−/y littermate mice using a protocol approved by the Geneva veterinary office and maintained under culture conditions as described (De Roo M et al, 2008, Cereb Cortex, 18(1):151-161). Transfection was carried out at DIV7 with a biolistic method (Helios Gene Gun, Bio-Rad) using gold beads coated with mRFP and either pAAV-EGFP-shRNA-Dgkk, pAAV-EGFP-shRNA-scramble, pAAV-hSynapsin1-EGFP or pAAV-hSynapsin1-HA-[…]. Repetitive confocal imaging was performed as previously described (De Roo M et al, 2008, Cereb Cortex, 18(1):151-161). Briefly, dendritic segments of CA1 transfected neurons (30-40 μm in length) were imaged from DIV12 to DIV15 (at 0, 5, 24, 48 and 72 hours) using an Olympus Fluoview 300 system and analysis of the Z-stacked images so obtained was performed using Osirix software.

Cos-1 cells = experiment: Western blot (anti-HA) of Dgkk constructs in Cos-1 cells, siFmr1 versus siRNA control; format: cell-based; details: siFmr1 vs siCtrl, HA signal normalized to GAPDH
Procedure: COS cells (ATCC® CRL-1650™) were grown in DMEM supplemented with 10% fetal calf serum, 1 g/l glucose in the presence of antibiotics at 37° C. in 5% CO2. The day before transfection, 4×10^4 cells were plated into 24-well format plates in 500 μl of antibiotic-free medium.
Transfections of sh-RNAs were performed in triplicate with Lipofectamine 2000 (Invitrogen, Carlsbad, Calif.) on 60 000 cells as directed by the manufacturer with 20 pmol of siRNA (Control or On Target plus Smart Pool mouse FMR1, Thermo) in a final volume of 600 μl. Twenty-four hours later, 0.6 μg of a plasmid construction and 20 pmol of shRNA were co-transfected as above. Fourty-eight hours later, cells washed twice in PBS were lysed directly in the loading buffer (100 mM Tris-HCl, pH 6.8, 4% SDS, 30% glycerol, 1.4 M ß-mercaptoethanol, and bromophenol blue) for 3 min at 95° C. Proteins were analyzed on a 10% SDS-polyacrylamide gel and immunoblotted onto PVDF (Millipore) in Tris-glycine-SDS/20% ethanol buffer for 1 h at 200 mA. […]
In a second series of experiments, the inventors aimed to determine which part of the 5′ region of Dgkk is important in the control of Dgkk expression by FMRP. […] Then, as previously described, Cos-1 cells were transfected by these constructs in the presence or absence of Fmr1 siRNA and the expression of the constructs was analyzed by western-blot.

[1] = versus shRNA-scramble transfected cells

| Substance | spine density (CA1 pyramidal neurons; CA1 pyramidal neurons, biolistic transfection) | lost spines per 24 h (CA1 pyramidal neurons; [1]) | multi-head spines (CA1 pyramidal neurons; [1]) | mushroom spines (CA1 pyramidal neurons; [1]) | new spine formation per 24 h (CA1 pyramidal neurons; [1]) | reduction of the expression level of the construct when FMRP expression is reduced (Cos-1 cells) |
| --- | --- | --- | --- | --- | --- | --- |
| shRNA-Dgkk: short hairpin RNA designed to target Dgkk (SEQ ID No: 6), in pAAV plasmid expressing EGFP (guide GGAATGCACTACTGGTATTCC; shRNA hairpin expressed from pAAV-EGFP vector) | Absence of changes | Increase | Increase | decrease | Increase |  |
| Dgkk-FL: plasmid carrying all mouse Dgkk exons, its 5′UTR, its 3′UTR and a HA tag (SEQ ID No: 8) |  |  |  |  |  | about 70% |
